Source: PMC4722047, “Purification and characterization of the enzymes involved in nicotinamide adenine dinucleotide degradation by Penicillium brevicompactum NRC 829” (3 Biotech, 2016)

System: T1, NAD aminohydrolase (NAD deaminase)
T1 construct: native enzyme purified from mycelial extract (acetone, DEAE-Sephadex A-25, Sephadex G-100); 91 kDa by SDS-PAGE
Assay: discontinuous ammonia release (Nessler's reagent)
Format: biochemical, Penicillium brevicompactum
Settings: pH 6.0, 50 mM Tris-acetate
Source text: discontinuous ammonia release (Nessler's reagent) on NAD aminohydrolase (NAD deaminase)

[1] = 40 °C (conditions given for NAD)

Row | SMILES | Km [1] [µM] | Km (40 °C, 30 min, 1.5-20 µM NAD+) [µM]
1 | Nc1ncnc2c1ncn2[C@@H]1O[C@H](COP(=O)(O)O)[C@@H](O)[C@H]1O [AMP] | 8.33 | –
2 | Nc1ncnc2c1ncn2[C@@H]1O[C@H](COP(=O)(O)OP(=O)(O)O)[C@@H](O)[C@H]1O [ADP] | 6.25 | –
3 | Nc1ncnc2c1ncn2[C@@H]1O[C@H](CO)[C@@H](O)[C@H]1O [Adenosine] | 4.5 | –
4 | NC(=O)c1ccc[n+]([C@@H]2O[C@H](COP(=O)(O)OP(=O)(O)OC[C@H]3O[C@@H](n4cnc5c(N)ncnc54)[C@H](O)[C@@H]3O)[C@@H](O)[C@H]2O)c1 [NAD] | – | 5.2
